Key:
B. subtilis 168 [1] = assay: fitness (endpoint OD595 vs no drug) (fraction); higher = more growth
Outline: (§1)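 Cultures at OD595 0.01 were dispensed into 384-well plates in TSB, LB Lennox or CY and incubated at 37 °C. Every 30 min for 14 h, OD595 was read and corrected by the first reading. Fitness is the optical density at entry into stationary phase relative to the robust mean of no-drug control wells, capped at 1.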

S. aureus Newman [2] = assay: as above
Outline: as §1

S. pneumoniae D39V [3] = assay: as above
Outline: as §1

B. subtilis 168 [4] = assay: Bliss interaction score (quartile over a dose matrix) (fitness difference); higher = more antagonism (negative = synergy)
Outline: (§2)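 Fitness is OD595 at stationary-phase entry relative to the plate's robust no-drug mean, capped at 1. Single-drug fitness was inferred from combinations. The Bliss score is observed minus product-expected fitness, summarised by quartiles over technical, biological and donor/recipient replicates.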

S. aureus DSM 20231 = assay: as above
Outline: as §2

S. aureus Newman [5] = assay: as above
Outline: as §2

S. pneumoniae D39V [6] = assay: as above
Outline: as §2
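Wherever Bliss interaction score (quartile over a dose matrix) is given: first quartile when negative (synergy) and third quartile when positive (antagonism).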

CN(C)c1cc(NC(=O)CNC(C)(C)C)c(O)c2c1C[C@H]1C[C@H]3[C@H](N(C)C)C(O)=C(C(N)=O)C(=O)[C@@]3(O)C(O)=C1C2=O [Tigecycline] + CC1=C\[C@@H](O)CC(=O)Cc2nc(co2)C(=O)N2CCC=C2C(=O)O[C@H](C(C)C)[C@H](C)/C=C/C(=O)NC\C=C\1 [Virginiamycin M1]
fitness
Conditions | first compound 0.039 µg/mL | first compound 0.078 µg/mL | first compound 0.156 µg/mL | first compound 0.65 µg/mL | first compound 1.3 µg/mL | first compound 2.6 µg/mL
B. subtilis 168 [1], partner 0.0625 µg/mL | 0.977 | 0.987 | 0.96 | – | – | –
B. subtilis 168 [1], partner 0.125 µg/mL | 0.95 | 0.938 | 0.954 | – | – | –
B. subtilis 168 [1], partner 0.25 µg/mL | 0.997 | 0.989 | 0.953 | – | – | –
S. aureus Newman [2], partner 0.0625 µg/mL | 0.982 | ≥ 1 | ≥ 1 | – | – | –
S. aureus Newman [2], partner 0.125 µg/mL | 0.998 | 0.999 | ≥ 1 | – | – | –
S. aureus Newman [2], partner 0.25 µg/mL | 0.993 | 0.996 | ≥ 1 | – | – | –
S. pneumoniae D39V [3], partner 0.5 µg/mL | – | – | – | 0.99 | 0.961 | 0.976
S. pneumoniae D39V [3], partner 1 µg/mL | – | – | – | 0.946 | 0.951 | 0.956
S. pneumoniae D39V [3], partner 2 µg/mL | – | – | – | 0.919 | 0.904 | 0.931

one replicate
Conditions | fitness
B. subtilis 168 [1], first compound 0.125 µg/mL, partner 0.0625 µg/mL | ≥ 1
B. subtilis 168 [1], first compound 0.125 µg/mL, partner 0.125 µg/mL | ≥ 1
B. subtilis 168 [1], first compound 0.125 µg/mL, partner 0.25 µg/mL | ≥ 1
B. subtilis 168 [1], first compound 0.25 µg/mL, partner 0.0625 µg/mL | 0.908
B. subtilis 168 [1], first compound 0.25 µg/mL, partner 0.125 µg/mL | 0.908
B. subtilis 168 [1], first compound 0.25 µg/mL, partner 0.25 µg/mL | 0.98
B. subtilis 168 [1], first compound 0.5 µg/mL, partner 0.0625 µg/mL | 0.959
B. subtilis 168 [1], first compound 0.5 µg/mL, partner 0.125 µg/mL | 0.903
B. subtilis 168 [1], first compound 0.5 µg/mL, partner 0.25 µg/mL | 0.925
S. aureus Newman [2], first compound 0.039 µg/mL, partner 0.5 µg/mL | 0.817
S. aureus Newman [2], first compound 0.039 µg/mL, partner 1 µg/mL | 0.983
S. aureus Newman [2], first compound 0.039 µg/mL, partner 2 µg/mL | 0.768
S. aureus Newman [2], first compound 0.078 µg/mL, partner 0.5 µg/mL | 0.817
S. aureus Newman [2], first compound 0.078 µg/mL, partner 1 µg/mL | 0.877
S. aureus Newman [2], first compound 0.078 µg/mL, partner 2 µg/mL | 0.742
S. aureus Newman [2], first compound 0.156 µg/mL, partner 0.5 µg/mL | 0.86
S. aureus Newman [2], first compound 0.156 µg/mL, partner 1 µg/mL | 0.872
S. aureus Newman [2], first compound 0.156 µg/mL, partner 2 µg/mL | 0.745
S. pneumoniae D39V [3], first compound 0.65 µg/mL, partner 0.15 µg/mL | 0.982
S. pneumoniae D39V [3], first compound 0.65 µg/mL, partner 0.3 µg/mL | 0.92
S. pneumoniae D39V [3], first compound 1.3 µg/mL, partner 0.15 µg/mL | 0.963
S. pneumoniae D39V [3], first compound 1.3 µg/mL, partner 0.3 µg/mL | 0.914
S. pneumoniae D39V [3], first compound 2.6 µg/mL, partner 0.15 µg/mL | 0.928
S. pneumoniae D39V [3], first compound 2.6 µg/mL, partner 0.3 µg/mL | 0.86

Conditions | Bliss interaction score
B. subtilis 168 [4] | -0.0387
S. aureus DSM 20231 | 0.109
S. aureus Newman [5] | -0.0271
S. pneumoniae D39V [6] | -0.0538

C[C@@H]1O[C@@H]1P(=O)(O)O [Fosfomycin] + CN(C)c1cc(NC(=O)CNC(C)(C)C)c(O)c2c1C[C@H]1C[C@H]3[C@H](N(C)C)C(O)=C(C(N)=O)C(=O)[C@@]3(O)C(O)=C1C2=O [Tigecycline]
Conditions | fitness
B. subtilis 168 [1], first compound 1.562 µg/mL, partner 0.039 µg/mL | 0.76
B. subtilis 168 [1], first compound 1.562 µg/mL, partner 0.078 µg/mL | 0.746
B. subtilis 168 [1], first compound 1.562 µg/mL, partner 0.156 µg/mL | 0.713
B. subtilis 168 [1], first compound 3.124 µg/mL, partner 0.039 µg/mL | 0.655
B. subtilis 168 [1], first compound 3.124 µg/mL, partner 0.078 µg/mL | 0.598
B. subtilis 168 [1], first compound 3.124 µg/mL, partner 0.156 µg/mL | 0.595
B. subtilis 168 [1], first compound 6.248 µg/mL, partner 0.039 µg/mL | 0.52
B. subtilis 168 [1], first compound 6.248 µg/mL, partner 0.078 µg/mL | 0.488
B. subtilis 168 [1], first compound 6.248 µg/mL, partner 0.156 µg/mL | 0.492
S. aureus Newman [2], first compound 0.781 µg/mL, partner 0.039 µg/mL | 0.558
S. aureus Newman [2], first compound 0.781 µg/mL, partner 0.078 µg/mL | 0.57
S. aureus Newman [2], first compound 0.781 µg/mL, partner 0.156 µg/mL | 0.593
S. aureus Newman [2], first compound 1.562 µg/mL, partner 0.039 µg/mL | 0.47
S. aureus Newman [2], first compound 1.562 µg/mL, partner 0.078 µg/mL | 0.504
S. aureus Newman [2], first compound 1.562 µg/mL, partner 0.156 µg/mL | 0.518
S. aureus Newman [2], first compound 3.124 µg/mL, partner 0.039 µg/mL | 0.177
S. aureus Newman [2], first compound 3.124 µg/mL, partner 0.078 µg/mL | 0.188
S. aureus Newman [2], first compound 3.124 µg/mL, partner 0.156 µg/mL | 0.184
S. pneumoniae D39V [3], first compound 1.25 µg/mL, partner 0.325 µg/mL | 0.929
S. pneumoniae D39V [3], first compound 1.25 µg/mL, partner 0.65 µg/mL | 0.921
S. pneumoniae D39V [3], first compound 1.25 µg/mL, partner 1.3 µg/mL | 0.942
S. pneumoniae D39V [3], first compound 1.25 µg/mL, partner 2.6 µg/mL | 0.921
S. pneumoniae D39V [3], first compound 2.5 µg/mL, partner 0.325 µg/mL | 0.953
S. pneumoniae D39V [3], first compound 2.5 µg/mL, partner 0.65 µg/mL | 0.912
S. pneumoniae D39V [3], first compound 2.5 µg/mL, partner 1.3 µg/mL | 0.92
S. pneumoniae D39V [3], first compound 2.5 µg/mL, partner 2.6 µg/mL | 0.86
S. pneumoniae D39V [3], first compound 5 µg/mL, partner 0.325 µg/mL | 0.796
S. pneumoniae D39V [3], first compound 5 µg/mL, partner 0.65 µg/mL | 0.748
S. pneumoniae D39V [3], first compound 5 µg/mL, partner 1.3 µg/mL | 0.791
S. pneumoniae D39V [3], first compound 5 µg/mL, partner 2.6 µg/mL | 0.809

fitness, B. subtilis 168 [1], one replicate
Conditions | first compound 1.562 µg/mL | first compound 3.124 µg/mL | first compound 6.248 µg/mL
partner 0.125 µg/mL | 0.833 | 0.771 | 0.576
partner 0.25 µg/mL | 0.819 | 0.662 | 0.537
partner 0.5 µg/mL | 0.753 | 0.683 | 0.568

Conditions | Bliss interaction score
B. subtilis 168 [4] | -0.0396
S. aureus DSM 20231 | 0.044
S. aureus Newman [5] | -0.0631
S. pneumoniae D39V [6] | 0.0555

O=C(O)c1cn(C2CC2)c2cc(N3CCNCC3)c(F)cc2c1=O [Ciprofloxacin] + CC1=C\[C@@H](O)CC(=O)Cc2nc(co2)C(=O)N2CCC=C2C(=O)O[C@H](C(C)C)[C@H](C)/C=C/C(=O)NC\C=C\1 [Virginiamycin M1]
fitness
Conditions | partner 0.0625 µg/mL | partner 0.125 µg/mL | partner 0.25 µg/mL | partner 0.5 µg/mL | partner 1 µg/mL | partner 2 µg/mL
B. subtilis 168 [1], first compound 0.0098 µg/mL | 0.941 | 0.896 | 0.859 | – | – | –
B. subtilis 168 [1], first compound 0.0195 µg/mL | 0.739 | 0.703 | 0.705 | – | – | –
B. subtilis 168 [1], first compound 0.039 µg/mL | 0.139 | 0.0393 | 0.0545 | – | – | –
S. aureus Newman [2], first compound 0.0375 µg/mL | 0.664 | 0.662 | 0.672 | – | – | –
S. aureus Newman [2], first compound 0.075 µg/mL | 0.616 | 0.658 | 0.703 | – | – | –
S. aureus Newman [2], first compound 0.15 µg/mL | 0.0348 | 0.0378 | 0.0632 | – | – | –
S. pneumoniae D39V [3], first compound 0.125 µg/mL | – | – | – | 0.969 | 0.96 | 0.909
S. pneumoniae D39V [3], first compound 0.25 µg/mL | – | – | – | 0.874 | 0.842 | 0.784

fitness, one replicate
Conditions | first compound 0.078 µg/mL | first compound 0.125 µg/mL | first compound 0.156 µg/mL | first compound 0.25 µg/mL | first compound 0.312 µg/mL | first compound 0.5 µg/mL
S. aureus Newman [2], partner 0.5 µg/mL | 0.638 | – | 0.45 | – | 0.128 | –
S. aureus Newman [2], partner 1 µg/mL | 0.785 | – | 0.503 | – | 0.125 | –
S. aureus Newman [2], partner 2 µg/mL | 0.72 | – | 0.472 | – | 0.161 | –
S. pneumoniae D39V [3], partner 0.15 µg/mL | – | 0.954 | – | 0.894 | – | 0.807
S. pneumoniae D39V [3], partner 0.3 µg/mL | – | 0.928 | – | 0.844 | – | 0.816

Conditions | Bliss interaction score
B. subtilis 168 [4] | -0.0881
S. aureus DSM 20231 | 0.0396
S. aureus Newman [5] | 0.0616
S. pneumoniae D39V [6] | -0.0532
